Earlier results in patent publication US6133275A, “3-phenylpyrrolidine alpha-1 adrenergic compounds” (Abbott Laboratories, priority 1998, dated 2000).

Tested on: BPH patients
Conditions: cited from earlier work; for improvements in urinary flow rates and subjective symptom scores: longer term studies

| SMILES | improvements in urinary flow rates and subjective symptom scores | Clinical efficacy in BPH (BPH patients) |
| --- | --- | --- |
| COc1cc2nc(N3CCN(C(=O)c4ccco4)CC3)nc(N)c2cc1OC [prazosin] | significant improvements in urinary flow rates and subjective symptom scores | – |
| COc1cc2nc(N3CCN(C(=O)C4CCCO4)CC3)nc(N)c2cc1OC (stereo not drawn) [terazosin] | significant improvements in urinary flow rates and subjective symptom scores | Clinical efficacy of α1 antagonists in BPH has been demonstrated |
